Experiments:
[1] = test system: NCI-H292 cells; test: MUC5AC mRNA and protein in NCI-H292 cells incubated with cigarette smoke solution (Example 7); assay type: cell-based, human; settings: within 6 hours, increased at 12 hours
Protocol: NCI-H292 cells, a human pulmonary mucoepidermoid carcinoma cell line, were grown in RPMI 1640 medium containing 10% fetal bovine serum, penicillin (100 U/ml), streptomycin (100 μg/ml) and Hepes (25 mM) at 37° C. in a humidified 5% CO2 water-jacketed incubator. Either 6-well culture plates or 8-chamber slides were used to culture the cells. When confluent, cells were incubated for 1 hour with cigarette smoke solution. The cells were then washed and incubated with fresh medium alone. Experiments were terminated at preselected times (for mRNA, 6 hours and 12 hours; for protein, 24 hours). As controls, cells were incubated with medium alone for same time periods. […] The effects of a selective inhibitor of platelet-derived growth factor receptor tyrosine kinase (tyrphostin AG1295, 100 μM, Calbiochem), and a negative control for tyrphostins (tyrphostin A1, 100 μM, Calbiochem) were also examined. The role of reactive oxygen species was examined using a scavenger of oxygen free radicals DMSO (1%, Sigma), or superoxide dismutase (SOD, 300 U/ml, Sigma).
In situ hybridization was performed using a human EGFR probe, which contains a 350-bp cDNA fragment of the human EGFR gene (pTRI-EGFR-human probe template, Ambion, Austin, Tex.) and a human MUC5AC probe, which contains a 298-bp cDNA fragment of the human MUC5AC gene, The 350-bp cDNA human EGFR was subcloned into pBluescript II SK-vector at Kpn I and EcoR I sites. This pBluescript was used to generate human EGFR antisense and sense probes. Hybridization was performed as described previously. Lou et al. (1998) Am. J. Respir. Crit. Care Med. 157:1927-1934. In brief, the cells grown on the 8-chamber slides were fixed in 4% paraformaldehyde, rehydrated in 0.5×SSC, and then acetylated in triethanolamine and acetic anhydride. Hybridization was carried out with 2500-4000 cpm/μl of antisense or sense probe in 50% deionized formamide, 0.3 M NaCl, 20 mM Tris, 5 mM EDTA, 1× Denhardt's solution, 20 mM dithiothreitol, 10% dextran sulfate, 0.5 mg/ml yeast tRNA, and 0.5 mg/ml sonicated salmon sperm DNA at 58° overnight. Posthybridization treatment consisted of washes with 2×SSC, 1 mM EDTA, 10 mM β-mercaptoethanol at room temperature, incubation with RNase solution (20 μg/ml) for 30 min at room temperature, and further washes in 0.1×SSC, 1 mM EDTA, 10 mM β-mercaptoethanol at 55° C. for 2 hours and then in 0.5×SSC at room temperature for 20 minutes. Specimens were dehydrated, air-dried, and covered with Kodak NBT nuclear track emulsion (Eastman Kodak, Rochester, N.Y.) for autoradiography. After exposure for 7 to 21 days at 4° C., the slides were developed, fixed, and counterstained with hematoxylin.
MUC5AC protein was measured as described previously. Takeyama et al. (1999) Proc. Natl. Acad. Sci. USA 96:3081-3086. In brief, cell lysates were prepared with PBS at multiple dilutions, and 50 μl of each sample was incubated with bicarbonate-carbonate buffer (50 μl) at 40° C. in a 96-well plate (Maxisorp Nunc, Fisher Scientific, Santa Clara, Calif.), until dry. Plates were washed three times with PBS and blocked with 2% bovine serum albumin, fraction V (Sigma) for 1 hour at room temperature. Plates were again washed three times with PBS and then incubated with 50 μl of MUC5AC mAb (1:1 00) that was diluted with PBS containing 0.05% Tween 20. After 1 hour, the wells were washed three times with PBS, and 100 μl horseradish peroxidase-goat anti-mouse IgG conjugate (1:10,000) was dispensed into each well. After 1 hour, plates were washed three times with PBS. Color reaction was developed with 3,3′,5,5′-tetramethylbenzidine (TMB) peroxidase solution (Kirkegaard & Perry Laboratories, Gaithersburg, Md.) and stopped with 2N H2S04. Absorbance was read at 450 nm.

[2] = test system: NCI-H292 cells; test: In situ hybridization for MUC5AC gene in NCI-H292 cells (Example 2); assay type: cell-based, human; settings: within 12 h
Protocol: Cell Culture. NCI-H292 cells, a human pulmonary mucoepidermoid carcinoma cell line, were grown in RPMI 1640 medium containing 10% fetal bovine serum, penicillin (100 U/ml), streptomycin (100 μg/ml) and Hepes (25 mM) at 37° C. in a humidified 5% CO2, water-jacketed incubator. Either 6-well culture plates or 8-chamber slides were used to culture the cells. When confluent, cells were incubated for 1 h with neutrophils (10^6 cells/ml) alone, TNFα alone (recombinant human TNFα, 20 ng/ml, Genzyme, Cambridge, Mass.), IL-8 (recombinant human IL-8, 10^−8 M, Genzyme) alone, fMLP (10^−8 M, Sigma, St. Louis, Mo.) alone, TNFα plus neutrophils, IL-8 plus neutrophils, fMLP plus neutrophils, hydrogen peroxide (H2O2, 200 μM), cigarette smoke solution or TGFα (recombinant human TGFα, 0.1-25 ng/ml, Calbiochem, San Diego, Calif.). The cells were then washed and incubated with fresh medium alone. Experiments were terminated at preselected times (for mRNA, 6 h and 12 h; for protein, 24 h). As controls, cells were incubated with medium alone for same time periods. […] NCI-H292 cells were incubated for 1 h with either neutrophils that had been incubated with TNFα (20 ng/ml) for 1 h and then washed with sterile PBS to avoid contamination with the supernatant (e.g., molecules released from neutrophils), or the NCI-H292 cells were incubated with supernatant only. […]

In the case of “TGFα: transforming growth factor alpha, EGF-R ligand (recombinant human; rat synthetic in vivo)”, the “MUC5AC mRNA expression” value [1] is reported as “increased” and the MUC5AC gene expression [2] is reported as “up-regulated”.
